Entries after “also recorded” stand apart in the source; their conditions may differ.
Test system: BSA
Assay: Western blot of BSA tyrosine nitration, cell-free (anti-nitrotyrosine antibody)
Assay type: biochemical, bovine
Settings: 1 hr
Method: BSA (0.5 mg/ml) in EBSS with or without PQQ was exposed to SIN-1 or peroxynitrite for 1 hr, and then 4× sample buffer (40% glycerol, 20% β-mercaptoethanol, 0.004% bromophenol blue, 6.4% SDS, 25% 1M Tris-HCl, pH 6.8) was added. After the samples were heated for 5 min, 2 μg protein per lane was subjected to SDS-PAGE analysis, followed by transfer to PVDF membrane (NEN Life Science, Boston, Mass.) and reacted with a mouse anti-nitrotyrosine monoclonal antibody (Upstate Biotechnology). Proteins were visualized with horseradish peroxidase-conjugated sheep anti-mouse immunoglobulin G (IgG) followed by detection with enhanced chemiluminescence.

O=C(O)c1cc(C(=O)O)c2c(n1)C(=O)C(=O)c1cc(C(=O)O)[nH]c1-2 [PQQ, Pyrroloquinoline quinone]
Effect on BSA nitration caused by ONOO− (ONOO− 100 μM, PQQ 100-500 μM): potentiated; also recorded: increased | Effect on BSA nitration caused by SIN-1 (SIN-1 1 mM, PQQ 100 μM, 300 μM or 500 μM): completely blocked

From US20030229114A1, “Pyrroloquinoline quinone drugs as a neuroprotectant and methods of use thereof” (priority 2002, published 2003)
